Assay results taken from PubChem BioAssay AID1033 (Sanford-Burnham Center for Chemical Genomics, 2008).
The source made the active and inactive calls. How the calls were made is not given here.

Target: Chaperone protein DnaK (Escherichia coli (strain K12)) (UniProt P0A6Y8)
Test: binders of DnaK substrate-binding domain, biophysical, NMR, chaperone (AID 1033)
Conditions: Purified DnaK SBD, NMR ligand binding

Chain of Chaperone protein DnaK (Escherichia coli (strain K12)) (P0A6Y8 whole entry, looked up, the tested form may be a part): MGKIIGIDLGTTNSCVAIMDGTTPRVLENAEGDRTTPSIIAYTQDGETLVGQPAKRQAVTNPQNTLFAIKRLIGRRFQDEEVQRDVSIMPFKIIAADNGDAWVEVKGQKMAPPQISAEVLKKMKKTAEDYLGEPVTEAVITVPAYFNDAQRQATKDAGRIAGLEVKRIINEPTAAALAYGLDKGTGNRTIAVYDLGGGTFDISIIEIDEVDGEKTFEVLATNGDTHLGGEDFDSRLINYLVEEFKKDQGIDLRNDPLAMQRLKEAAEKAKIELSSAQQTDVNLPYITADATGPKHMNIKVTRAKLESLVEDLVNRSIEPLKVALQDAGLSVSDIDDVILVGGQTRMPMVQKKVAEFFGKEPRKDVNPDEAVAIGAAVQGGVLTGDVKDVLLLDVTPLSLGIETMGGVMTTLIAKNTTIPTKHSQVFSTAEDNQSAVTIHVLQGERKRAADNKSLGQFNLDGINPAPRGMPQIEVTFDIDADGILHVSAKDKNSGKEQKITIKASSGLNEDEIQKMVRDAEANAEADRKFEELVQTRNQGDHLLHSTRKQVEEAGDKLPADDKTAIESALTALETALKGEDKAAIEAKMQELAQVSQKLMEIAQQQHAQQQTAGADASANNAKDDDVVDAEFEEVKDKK

Structure (SMILES)	Kd
COc1ccccc1-c1c(C)nn2c(C)c(C(C)=O)cnc12	> 4 mM (inactive)
COc1cc2c(cc1OC)-c1nnnn1C(C)(C)C2	> 4 mM (inactive)
NC(=O)NC1C=CS(=O)(=O)C1 (centres undefined)	> 4 mM (inactive)
COc1ccc(/C=C2/N=C(N)SC2=O)cc1	> 4 mM (inactive)
Cc1cccc(-n2c(N)cc(=O)[nH]c2=S)c1	> 4 mM (inactive)
c1ccc(-c2nsc(N3CCCNCC3)n2)cc1	> 4 mM (inactive)
Cc1cc(C)n(S(=O)(=O)c2cc(C)c(C)cc2C)n1	> 4 mM (inactive)
O=C(c1ncc[nH]1)c1ccccc1C(=O)N1CCOCC1	> 4 mM (inactive)
CCCOn1nnnc1-c1ccccc1	> 4 mM (inactive)
O=C1CCC(=O)N1c1ccc(F)cc1	> 4 mM (inactive)
NS(=O)(=O)c1ccc(NC(=O)C2CC2)cc1	> 4 mM (inactive)
O=c1[nH]c(N2CCOCC2)nc2ccccc12	> 4 mM (inactive)
Clc1ccccc1-c1nc(-c2cccnc2)no1	> 4 mM (inactive)
Nc1ccccc1C(=O)N1CCOCC1	> 4 mM (inactive)
CCN(CC)C(=O)c1n[nH]c(=O)c2ccccc12	> 4 mM (inactive)
NN1C(=O)/C(=C/c2ccc(O)c(O)c2)SC1=S	> 4 mM (inactive)
CN1CCN(C2CCN(Cc3ccccc3)CC2)CC1	> 4 mM (inactive)
Cc1nnc(C)n1/N=C/c1cccs1	> 4 mM (inactive)
OCC1CCCCCN1 (centres undefined)	> 4 mM (inactive)
Cc1nn(-c2ccccc2)c(Cl)c1C(N)=O	> 4 mM (inactive)
O=NN1C(=O)c2ccccc2C1=O	> 4 mM (inactive)
COc1cc(O)c(C(C)=O)c(OC)c1	> 4 mM (inactive)
CC1(C)O[C@H]2[C@H](O)C[C@](O)(C(N)=O)C[C@H]2O1	> 4 mM (inactive)
CC(=O)O[C@H]1CC[C@@]2(C)C(=CC(=O)C3C4CCC(C(C)CCCC(C)C)[C@@]4(C)CCC32)C1 (some centres undefined)	> 4 mM (inactive)
CN1CC(=O)N=C1N	> 4 mM (inactive)

Structure (SMILES)	Kd
O=C(/C=C/c1ccc(O)c(O)c1)O[C@@H]1C[C@](O)(C(=O)O)C[C@@H](O)[C@H]1O	> 4 mM (inactive)
O=C(O)CCC(=O)Nc1nnc(C(F)(F)F)s1	> 4 mM (inactive)
COC(CC(=O)O)c1nc2ccccc2s1 (centres undefined)	> 4 mM (inactive)
COC(=O)c1ccccc1C	> 4 mM (inactive)
O=C1CNC(=O)N1Cc1ccc(F)cc1	> 4 mM (inactive)
Clc1ccccc1OCc1nc(-c2ccccn2)no1	> 4 mM (inactive)
Cc1cc(NC(=O)CSc2nncn2C)no1	> 4 mM (inactive)
O=c1[nH]c(CN2CCN(CCO)CC2)nc2ccccc12	> 4 mM (inactive)
N#Cc1cn(CC(=O)N2CCCC2)c2ccccc12	> 4 mM (inactive)
CN1CCN(C2CCSC2)CC1 (centres undefined)	> 4 mM (inactive)
COC(=O)c1cncc(C(=O)OC)c1	> 4 mM (inactive)
CC(C)CCCC(C)[C@H]1CCC2C3CC[C@H]4CC(=O)CC[C@]4(C)C3CC[C@@]21C (some centres undefined)	> 4 mM (inactive)
CN1CCN(C(=O)c2ccccc2N)CC1	> 4 mM (inactive)
c1ccc(C[N+]23CCN(CC2)CC3)cc1	> 4 mM (inactive)
O=C(O)C1NCCc2ccccc21 (centres undefined)	> 4 mM (inactive)
Cc1ccc(C(=O)N2CCOCC2)cc1Cl	> 4 mM (inactive)
Cc1cc(C)nc(Nc2n[nH]c(Cc3ccccc3)n2)n1	> 4 mM (inactive)
O=C(O)c1ccccc1C(=O)NCC1CCCO1 (centres undefined)	> 4 mM (inactive)
FC(F)(F)c1cc(-c2ccco2)nc(N2CCOCC2)n1	> 4 mM (inactive)
CC(=O)Nc1ccc(-c2cn3ccsc3n2)cc1	> 4 mM (inactive)
O=C(NCc1ccco1)c1nc2ncccn2n1	> 4 mM (inactive)
COc1cc(NC(=O)c2ccccc2)c(C)cc1N	> 4 mM (inactive)
O=C(Nc1nccs1)c1ccc(=O)[nH]n1	> 4 mM (inactive)
Cc1ccc(C(=O)Nc2nnc(-c3ccncc3)s2)o1	> 4 mM (inactive)
